Experimental data from patent US12590091B2, “1H-pyrrolo[3,2-C]pyridine and 1H-pyrrolo[2,3-C]pyridine derivatives as TLR9 inhibitors for the treatment of fibrosis” (BRISTOL-MYERS SQUIBB COMPANY, priority 2020, dated 2026).

Target: T1, human TLR7 (Homo sapiens, UniProt Q9NYK1)
T1 construct: host or cells: HEK-Blue cells
T1 sequence (Q9NYK1 27-1049): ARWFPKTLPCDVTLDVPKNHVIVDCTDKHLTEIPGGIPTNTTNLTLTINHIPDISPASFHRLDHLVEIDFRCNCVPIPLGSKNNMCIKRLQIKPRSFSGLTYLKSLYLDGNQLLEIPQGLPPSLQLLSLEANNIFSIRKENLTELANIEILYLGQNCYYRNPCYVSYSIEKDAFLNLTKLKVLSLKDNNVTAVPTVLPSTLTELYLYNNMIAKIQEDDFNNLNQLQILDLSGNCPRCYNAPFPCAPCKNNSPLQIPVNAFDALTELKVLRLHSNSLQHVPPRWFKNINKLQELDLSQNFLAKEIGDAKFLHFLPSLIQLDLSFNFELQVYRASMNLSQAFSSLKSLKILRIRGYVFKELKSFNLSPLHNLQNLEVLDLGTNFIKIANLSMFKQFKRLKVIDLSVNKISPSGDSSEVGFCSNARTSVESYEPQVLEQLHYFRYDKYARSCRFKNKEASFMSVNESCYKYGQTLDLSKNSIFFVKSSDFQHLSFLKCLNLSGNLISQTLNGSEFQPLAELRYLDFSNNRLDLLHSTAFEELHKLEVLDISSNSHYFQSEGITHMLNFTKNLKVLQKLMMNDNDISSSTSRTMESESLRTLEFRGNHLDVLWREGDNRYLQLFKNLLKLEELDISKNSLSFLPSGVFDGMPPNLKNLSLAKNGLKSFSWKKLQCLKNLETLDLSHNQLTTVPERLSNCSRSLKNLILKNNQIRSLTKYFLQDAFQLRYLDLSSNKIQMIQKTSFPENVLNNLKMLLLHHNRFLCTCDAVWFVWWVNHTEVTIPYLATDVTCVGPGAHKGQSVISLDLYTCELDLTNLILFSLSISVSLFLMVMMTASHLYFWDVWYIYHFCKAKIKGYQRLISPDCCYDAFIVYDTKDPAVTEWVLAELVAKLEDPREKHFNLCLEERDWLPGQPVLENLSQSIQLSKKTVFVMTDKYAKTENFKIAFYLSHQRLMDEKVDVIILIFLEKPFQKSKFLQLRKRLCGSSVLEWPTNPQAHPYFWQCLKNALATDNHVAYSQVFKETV
Assay: TLR7 inhibition reporter assay (HEK-Blue cells, SEAP reporter)
Type: cell-based
Details: HEK-Blue cells overexpressing human TLR7, stimulated with gardiquimod 7.5 μM, 22 hour incubation
Description: TLR7/8/9 Inhibition Reporter Assays
HEK-Blue™-cells (Invivogen) overexpressing human TLR7, TLR8 or TLR9 receptors were used for screening inhibitors of these receptors using an inducible SEAP (secreted embryonic alkaline phosphatase) reporter gene under the control of the IFN-β minimal promoter fused to five NF-κB and AP-1-binding sites. Briefly, cells are seeded into Greiner 384 well plates (15000 cells per well for TLR7, 20,000 for TLR8 and 25,000 for TLR9) and then treated with test compounds in DMSO to yield a final dose response concentration range of 0.05 nM-50 μM. After a 30 minute compound pre-treatment at room temperature, the cells are then stimulated with a TLR7 ligand (gardiquimod at a final concentration of 7.5 μM), TLR8 ligand (R848 at a final concentration of 15.9 μM) or TLR9 ligand (ODN2006 at a final concentration of 5 nM) to activate NF-κB and AP-1 which induce the production of SEAP. After a 22 hour incubation at 37° C., 5% CO2, SEAP levels are determined with the addition of HEK-Blue™ Detection reagent (Invivogen), a cell culture medium that allows for detection of SEAP, according to manufacturer's specifications. The percent inhibition is determined as the % reduction in the HEK-Blue signal present in wells treated with agonist plus DMSO alone compared to wells treated with a known inhibitor.

| Compound | IC50 [µM] |
| --- | --- |
| Cc1nc(-c2ccc(N3CCN(C4CCOCC4)CC3)cc2)cc2c1cc(-c1ccc(S(C)(=O)=O)cc1)n2C [Example 35, 1,4-dimethyl-2-(4-(methylsulfonyl)phenyl)-6-(4-(4-(tetrahydro-2H-pyran-4-yl)piperazin-1-yl)phenyl)-1H-pyrrolo[3,2-c]pyridine] | 16.8 |
| Cc1nc(-c2ccc(N3CCN(C4CCOC4)CC3)cc2)cc2c1cc(-c1ccc(S(C)(=O)=O)cc1)n2C (stereo not drawn) [Example 37, 1,4-dimethyl-2-(4-(methylsulfonyl)phenyl)-6-(4-(4-(tetrahydrofuran-3-yl)piperazin-1-yl)phenyl)-1H-pyrrolo[3,2-c]pyridine] | 11.7 |
| Cc1nc(-c2cc(F)c(N3CCNCC3)cc2F)cc2c1cc(-c1ccc(S(C)(=O)=O)cc1)n2C [Example 43, 6-(2,5-Difluoro-4-(piperazin-1-yl)phenyl)-1,4-dimethyl-2-(4-(methylsulfonyl)phenyl)-1H-pyrrolo[3,2-c]pyridine] | 6.2 |
| Cc1nc(-c2ccc(N3CCN(CCCO)CC3)cc2)cc2c1cc(-c1ccc(S(=O)(=O)C3CC3)cc1)n2C [Example 47, 3-(4-(4-(2-(4-(cyclopropylsulfonyl)phenyl)-1,4-dimethyl-1H-pyrrolo[3,2-c]pyridin-6-yl)phenyl)piperazin-1-yl)propan-1-ol] | 14.7 |
| CC(C)CN1CCN(c2ccc(-c3cc4c(cn3)cc(-c3ccc(S(C)(=O)=O)cc3)n4C)cc2)CC1 [Example 53, 6-(4-(4-isobutylpiperazin-1-yl)phenyl)-1-methyl-2-(4-(methylsulfonyl)phenyl)-1H-pyrrolo[3,2-c]pyridine] | > 50 |
| Cc1nc(-c2ccc(N3CCN(CCCO)CC3)c(F)c2F)cc2c1cc(-c1ccc(S(C)(=O)=O)cc1)n2C [Example 55, 3-(4-(4-(1,4-dimethyl-2-(4-(methylsulfonyl)phenyl)-1H-pyrrolo[3,2-c]pyridin-6-yl)-2,3-difluorophenyl)piperazin-1-yl)propan-1-ol] | 5.7 |
| Cc1nc(-c2cc(F)c(N3CCN(CCCO)CC3)cc2F)cc2c1cc(-c1ccc(S(C)(=O)=O)cc1)n2C [Example 56, 3-(4-(4-(1,4-dimethyl-2-(4-(methylsulfonyl)phenyl)-1H-pyrrolo[3,2-c]pyridin-6-yl)-2,5-difluorophenyl)piperazin-1-yl)propan-1-ol] | 18.5 |
| Cc1nc(-c2ccc(CN3CCN(CC(C)C)CC3)cc2)cc2c1cc(-c1ccc(S(C)(=O)=O)cc1)n2C [Example 57, 6-(4-((4-isobutylpiperazin-1-yl)methyl)phenyl)-1,4-dimethyl-2-(4-(methylsulfonyl)phenyl)-1H-pyrrolo[3,2-c]pyridine] | 6 |
| Cc1nc(-c2ccc(CN3CCN(CCCO)CC3)cc2)cc2c1cc(-c1ccc(S(C)(=O)=O)cc1)n2C [Example 58, 3-(4-(4-(1,4-dimethyl-2-(4-(methylsulfonyl)phenyl)-1H-pyrrolo[3,2-c]pyridin-6-yl)benzyl)piperazin-1-yl)propan-1-ol] | 8.2 |
| Cc1nc(-c2ccc(CN3CCC(C)(O)CC3)cc2)cc2c1cc(-c1ccc(S(C)(=O)=O)cc1)n2C [Example 59, 1-(4-(1,4-dimethyl-2-(4-(methylsulfonyl)phenyl)-1H-pyrrolo[3,2-c]pyridin-6-yl)benzyl)-4-methylpiperidin-4-ol] | 12.9 |
| Cc1nc(-c2ccc(CN3CCN(CCC(C)(C)O)CC3)cc2)cc2c1cc(-c1ccc(S(C)(=O)=O)cc1)n2C [Example 60, 4-(4-(4-(1,4-dimethyl-2-(4-(methylsulfonyl)phenyl)-1H-pyrrolo[3,2-c]pyridin-6-yl)benzyl)piperazin-1-yl)-2-methylbutan-2-ol] | 5.4 |
| Cc1nc(-c2ccc(N3CCN(CCO)CC3)c(F)c2)cc2c1cc(-c1ccc(S(C)(=O)=O)cc1)n2C [Example 69, 2-(4-(4-(1,4-dimethyl-2-(4-(methylsulfonyl)phenyl)-1H-pyrrolo[3,2-c]pyridin-6-yl)-2-fluorophenyl)piperazin-1-yl)ethan-1-ol] | 23.7 |
| Cc1nc(-c2ccc(N3CCN(C4CCOC4)CC3)c(F)c2)cc2c1cc(-c1ccc(S(C)(=O)=O)cc1)n2C (stereo not drawn) [Example 70, 6-(3-fluoro-4-(4-(tetrahydrofuran-3-yl)piperazin-1-yl)phenyl)-1,4-dimethyl-2-(4-(methylsulfonyl)phenyl)-1H-pyrrolo[3,2-c]pyridine] | > 25 |

These reach a lower IC50. Values come first.

| IC50 [µM] | Compound |
| --- | --- |
| 4.9 | Cc1nc(-c2ccc(C3CCN(CCCO)CC3)cc2)cc2c1cc(-c1ccc(S(C)(=O)=O)cc1)n2C [Example 41, 3-(4-(4-(1,4-Dimethyl-2-(4-(methylsulfonyl)phenyl)-1H-pyrrolo[3,2-c]pyridin-6-yl)phenyl)piperidin-1-yl)propan-1-ol] |
| 4.7 | Cc1nc(-c2ccc(N3CCN(CCCO)CC3)cc2)cc2c1cc(-c1ccc(S(C)(=O)=O)cc1)n2C [Example 36, 3-(4-(4-(1,4-dimethyl-2-(4-(methylsulfonyl)phenyl)-1H-pyrrolo[3,2-c]pyridin-6-yl)phenyl)piperazin-1-yl)propan-1-ol] |
| 4.6 | CC(C)N1CCN(c2ccc(-c3cc4c(cn3)cc(-c3ccc(S(C)(=O)=O)cc3)n4C)cc2)CC1 [Example 54, 6-(4-(4-isopropylpiperazin-1-yl)phenyl)-1-methyl-2-(4-(methylsulfonyl)phenyl)-1H-pyrrolo[3,2-c]pyridine] |
| 3.2 | COc1ccc(-c2c(C)n(C)c3cnc(-c4ccc(N5CCN(CCC(C)(C)O)CC5)cc4)cc23)cc1OC [Example 33, 4-(4-(4-(3-(3,4-dimethoxyphenyl)-1,2-dimethyl-1H-pyrrolo[2,3-c]pyridin-5-yl)phenyl)piperazin-1-yl)-2-methylbutan-2-ol] |
| 3.1 | Cc1nc(-c2ccc(CN3C[C@@H]4CC[C@H]3CN4CCC(C)(C)O)cc2)cc2c1cc(-c1ccc(S(C)(=O)=O)cc1)n2C [Example 61, 4-((1S,4S)-5-(4-(1,4-dimethyl-2-(4-(methylsulfonyl)phenyl)-1H-pyrrolo[3,2-c]pyridin-6-yl)benzyl)-2,5-diazabicyclo[2.2.2]octan-2-yl)-2-methylbutan-2-ol] |
| 2.6 | COCCN1CCN(c2ccc(-c3cc4c(cc(-c5ccc(S(C)(=O)=O)cc5)n4C)c(C)n3)cc2)CC1 [Example 38, 6-(4-(4-(2-methoxyethyl)piperazin-1-yl)phenyl)-1,4-dimethyl-2-(4-(methylsulfonyl)phenyl)-1H-pyrrolo[3,2-c]pyridine] |
| 2.2 | Cc1nc(-c2ccc(N3CCN(CC(C)C)CC3)cc2)cc2c1cc(-c1ccc(S(C)(=O)=O)cc1)n2C [Example 34, 6-(4-(4-isobutylpiperazin-1-yl)phenyl)-1,4-dimethyl-2-(4-(methylsulfonyl)phenyl)-1H-pyrrolo[3,2-c]pyridine] |
| 2.1 | COCCN1CCN(c2ccc(-c3cc4c(cc(-c5ccc(S(=O)(=O)C6CC6)cc5)n4C)c(C)n3)cc2)CC1 [Example 48, 2-(4-(cyclopropylsulfonyl)phenyl)-6-(4-(4-(2-methoxyethyl)piperazin-1-yl)phenyl)-1,4-dimethyl-1H-pyrrolo[3,2-c]pyridine] |
| 1.5 | COc1ccc(-c2cc3cnc(-c4ccc(N5CCN(C(C)C)CC5)nc4)cc3n2C)cc1OC [Example 31, 2-(3,4-dimethoxyphenyl)-6-(6-(4-isopropylpiperazin-1-yl)pyridin-3-yl)-1-methyl-1H-pyrrolo[3,2-c]pyridine] |
| 1.4 | COc1ccc(-c2c(C)n(C)c3cnc(-c4ccc(N5CCN(C(C)C)CC5)cc4)cc23)cc1OC [Example 32, 3-(3,4-dimethoxyphenyl)-5-(4-(4-isopropylpiperazin-1-yl)phenyl)-1,2-dimethyl-1H-pyrrolo[2,3-c]pyridine] |
| 0.64 | Cc1nc(-c2ccc(CN3CCN(CC(C)(C)O)CC3)cc2)cc2c1cc(-c1ccc(S(C)(=O)=O)cc1)n2C [Example 44, 1-(4-(4-(1,4-Dimethyl-2-(4-(methylsulfonyl)phenyl)-1H-pyrrolo[3,2-c]pyridin-6-yl)benzyl)piperazin-1-yl)-2-methylpropan-2-ol] |
